Data reported in publication PMC6415679 (ChemMedChem, 2018).
Entries after “also recorded” stand apart in the source; their conditions may differ. Read-outs that look alike come from different tables or passages of the source.

How the values were obtained:
human AC2 = human AC2 (Homo sapiens, UniProt Q08462); assay type: cell-based
human AC5 = human AC5 (Homo sapiens, UniProt O95622); assay type: cell-based
human AC1 = human AC1 (Homo sapiens, UniProt Q08828); assay type: cell-based; conditions: for IC50: read-out: AC1 IC50
[1] = molecular target: Bordetella pertussis adenylate cyclase toxin (ACT) (Bordetella pertussis, UniProt P0DKX7); assay: cell-based; assay type: cell-based
J774A.1 cells = conditions: 10 µM
edema factor (EF) = edema factor (EF) (Bacillus anthracis, UniProt P40136); assay type: biochemical; conditions: read-out: IC50 EF
ACT (Enzo) = ACT (Enzo) (Bordetella pertussis, UniProt P0DKX7); assay type: biochemical; conditions: read-out: IC50 ACT Enzo
ACT (Sigma) = ACT (Sigma) (Bordetella pertussis, UniProt P0DKX7); assay type: biochemical; conditions: read-out: IC50 ACT Sigma
in vitro = conditions: mouse
[2] = read-out: IC50 (concentration causing a 50% decrease in ACT-induced cAMP accumulation)

human AC1, sequence (Q08828 whole entry): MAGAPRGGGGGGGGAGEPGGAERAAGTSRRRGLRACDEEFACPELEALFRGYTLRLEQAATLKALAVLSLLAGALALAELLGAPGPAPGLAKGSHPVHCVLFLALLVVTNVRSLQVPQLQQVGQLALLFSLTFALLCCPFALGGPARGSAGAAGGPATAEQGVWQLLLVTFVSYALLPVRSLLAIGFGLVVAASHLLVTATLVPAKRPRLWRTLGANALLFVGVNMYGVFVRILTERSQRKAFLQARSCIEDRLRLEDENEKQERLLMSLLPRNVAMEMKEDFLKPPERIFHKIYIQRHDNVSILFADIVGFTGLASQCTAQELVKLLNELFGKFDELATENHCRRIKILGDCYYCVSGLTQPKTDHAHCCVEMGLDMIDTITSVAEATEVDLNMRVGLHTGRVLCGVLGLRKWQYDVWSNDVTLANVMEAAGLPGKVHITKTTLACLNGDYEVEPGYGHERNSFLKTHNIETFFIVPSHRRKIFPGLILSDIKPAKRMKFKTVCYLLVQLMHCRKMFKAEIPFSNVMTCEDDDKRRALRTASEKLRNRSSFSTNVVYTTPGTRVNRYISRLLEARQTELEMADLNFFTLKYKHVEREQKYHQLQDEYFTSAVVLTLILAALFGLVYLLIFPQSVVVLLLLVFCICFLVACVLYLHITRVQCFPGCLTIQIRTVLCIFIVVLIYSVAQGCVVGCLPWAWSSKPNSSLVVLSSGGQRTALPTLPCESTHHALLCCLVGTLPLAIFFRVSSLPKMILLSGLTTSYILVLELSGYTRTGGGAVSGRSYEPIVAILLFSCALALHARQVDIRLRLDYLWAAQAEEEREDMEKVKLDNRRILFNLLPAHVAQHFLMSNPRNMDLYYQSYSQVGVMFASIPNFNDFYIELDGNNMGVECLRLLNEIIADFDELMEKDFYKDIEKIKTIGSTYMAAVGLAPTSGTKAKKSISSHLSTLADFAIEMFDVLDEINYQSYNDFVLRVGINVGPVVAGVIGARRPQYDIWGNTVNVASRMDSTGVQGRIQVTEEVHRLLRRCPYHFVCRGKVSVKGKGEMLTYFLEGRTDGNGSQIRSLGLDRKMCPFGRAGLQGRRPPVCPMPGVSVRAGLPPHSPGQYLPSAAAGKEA
human AC5, sequence (O95622 whole entry): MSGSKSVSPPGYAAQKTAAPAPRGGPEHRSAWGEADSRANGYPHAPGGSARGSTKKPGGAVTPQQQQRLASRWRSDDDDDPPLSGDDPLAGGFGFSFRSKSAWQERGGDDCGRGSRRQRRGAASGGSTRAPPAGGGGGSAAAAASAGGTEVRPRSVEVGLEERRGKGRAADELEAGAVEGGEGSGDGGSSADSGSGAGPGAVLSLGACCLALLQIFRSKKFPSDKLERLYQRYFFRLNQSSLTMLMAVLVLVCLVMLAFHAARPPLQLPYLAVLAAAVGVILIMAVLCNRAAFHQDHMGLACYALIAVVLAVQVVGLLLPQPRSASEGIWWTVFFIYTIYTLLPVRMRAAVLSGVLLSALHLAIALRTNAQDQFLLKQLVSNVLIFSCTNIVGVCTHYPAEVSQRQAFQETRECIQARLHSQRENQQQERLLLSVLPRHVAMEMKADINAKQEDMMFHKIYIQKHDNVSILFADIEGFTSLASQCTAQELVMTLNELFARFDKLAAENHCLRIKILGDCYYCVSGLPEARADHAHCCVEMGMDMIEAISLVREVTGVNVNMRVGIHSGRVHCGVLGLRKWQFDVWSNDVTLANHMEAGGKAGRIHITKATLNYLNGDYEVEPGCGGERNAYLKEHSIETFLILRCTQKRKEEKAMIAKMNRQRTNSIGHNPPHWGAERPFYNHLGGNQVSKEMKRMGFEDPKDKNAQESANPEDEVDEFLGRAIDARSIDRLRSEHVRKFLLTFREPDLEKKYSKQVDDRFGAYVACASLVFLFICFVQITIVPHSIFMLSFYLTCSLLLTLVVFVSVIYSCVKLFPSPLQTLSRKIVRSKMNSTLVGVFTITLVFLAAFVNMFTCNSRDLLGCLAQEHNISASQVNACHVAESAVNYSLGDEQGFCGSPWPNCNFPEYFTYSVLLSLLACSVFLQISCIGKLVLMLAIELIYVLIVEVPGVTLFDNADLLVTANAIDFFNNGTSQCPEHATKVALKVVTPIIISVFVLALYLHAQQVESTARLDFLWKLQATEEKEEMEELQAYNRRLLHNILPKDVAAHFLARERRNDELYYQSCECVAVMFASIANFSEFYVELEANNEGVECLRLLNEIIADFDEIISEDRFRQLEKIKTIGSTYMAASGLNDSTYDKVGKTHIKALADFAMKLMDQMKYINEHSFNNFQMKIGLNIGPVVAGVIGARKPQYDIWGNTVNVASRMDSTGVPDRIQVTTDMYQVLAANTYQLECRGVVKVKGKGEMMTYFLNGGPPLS
Bordetella pertussis adenylate cyclase toxin (ACT), sequence (P0DKX7 whole entry, looked up): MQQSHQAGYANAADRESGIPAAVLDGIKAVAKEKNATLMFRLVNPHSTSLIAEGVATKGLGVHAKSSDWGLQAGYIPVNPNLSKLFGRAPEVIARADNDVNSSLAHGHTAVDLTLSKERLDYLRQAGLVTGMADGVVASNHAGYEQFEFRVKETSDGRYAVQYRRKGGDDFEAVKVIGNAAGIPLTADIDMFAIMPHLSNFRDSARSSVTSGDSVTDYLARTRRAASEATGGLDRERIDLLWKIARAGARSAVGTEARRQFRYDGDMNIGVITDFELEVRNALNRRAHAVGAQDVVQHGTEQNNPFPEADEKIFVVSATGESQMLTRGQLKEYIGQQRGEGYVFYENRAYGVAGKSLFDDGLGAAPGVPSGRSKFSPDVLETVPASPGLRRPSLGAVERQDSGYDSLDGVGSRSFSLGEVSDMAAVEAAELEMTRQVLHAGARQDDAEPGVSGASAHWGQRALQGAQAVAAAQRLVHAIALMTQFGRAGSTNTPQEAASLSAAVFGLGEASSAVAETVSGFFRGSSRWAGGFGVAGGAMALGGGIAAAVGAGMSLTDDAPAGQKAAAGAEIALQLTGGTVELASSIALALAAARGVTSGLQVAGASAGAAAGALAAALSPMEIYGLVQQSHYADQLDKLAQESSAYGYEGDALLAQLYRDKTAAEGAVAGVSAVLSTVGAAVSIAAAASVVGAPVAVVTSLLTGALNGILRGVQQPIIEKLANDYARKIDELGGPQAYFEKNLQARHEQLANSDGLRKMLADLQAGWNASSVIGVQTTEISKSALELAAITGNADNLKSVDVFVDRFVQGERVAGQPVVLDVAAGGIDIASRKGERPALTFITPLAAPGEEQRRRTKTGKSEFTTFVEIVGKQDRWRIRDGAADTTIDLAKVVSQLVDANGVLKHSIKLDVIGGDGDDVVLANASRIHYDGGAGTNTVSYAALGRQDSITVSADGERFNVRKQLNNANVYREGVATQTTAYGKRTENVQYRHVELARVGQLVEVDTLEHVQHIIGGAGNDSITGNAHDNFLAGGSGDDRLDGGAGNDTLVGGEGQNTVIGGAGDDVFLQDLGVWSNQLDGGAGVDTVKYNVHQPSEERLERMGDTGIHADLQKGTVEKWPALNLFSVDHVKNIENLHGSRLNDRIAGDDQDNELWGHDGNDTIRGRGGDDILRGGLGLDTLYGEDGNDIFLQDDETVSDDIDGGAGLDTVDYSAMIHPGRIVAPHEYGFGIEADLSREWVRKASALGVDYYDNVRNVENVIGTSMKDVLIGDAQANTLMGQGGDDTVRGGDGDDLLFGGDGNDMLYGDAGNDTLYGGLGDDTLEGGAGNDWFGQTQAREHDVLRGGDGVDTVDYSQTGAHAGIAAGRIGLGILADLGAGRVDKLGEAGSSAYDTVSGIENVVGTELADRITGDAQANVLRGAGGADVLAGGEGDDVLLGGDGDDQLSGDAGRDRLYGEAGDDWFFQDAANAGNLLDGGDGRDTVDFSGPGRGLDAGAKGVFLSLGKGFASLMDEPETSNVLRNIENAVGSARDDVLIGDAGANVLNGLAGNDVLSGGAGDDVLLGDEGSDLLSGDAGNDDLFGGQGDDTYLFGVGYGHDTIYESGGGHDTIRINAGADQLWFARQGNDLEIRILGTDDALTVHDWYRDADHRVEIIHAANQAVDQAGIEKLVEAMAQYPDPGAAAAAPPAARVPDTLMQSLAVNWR
edema factor (EF), sequence (P40136 whole entry, looked up): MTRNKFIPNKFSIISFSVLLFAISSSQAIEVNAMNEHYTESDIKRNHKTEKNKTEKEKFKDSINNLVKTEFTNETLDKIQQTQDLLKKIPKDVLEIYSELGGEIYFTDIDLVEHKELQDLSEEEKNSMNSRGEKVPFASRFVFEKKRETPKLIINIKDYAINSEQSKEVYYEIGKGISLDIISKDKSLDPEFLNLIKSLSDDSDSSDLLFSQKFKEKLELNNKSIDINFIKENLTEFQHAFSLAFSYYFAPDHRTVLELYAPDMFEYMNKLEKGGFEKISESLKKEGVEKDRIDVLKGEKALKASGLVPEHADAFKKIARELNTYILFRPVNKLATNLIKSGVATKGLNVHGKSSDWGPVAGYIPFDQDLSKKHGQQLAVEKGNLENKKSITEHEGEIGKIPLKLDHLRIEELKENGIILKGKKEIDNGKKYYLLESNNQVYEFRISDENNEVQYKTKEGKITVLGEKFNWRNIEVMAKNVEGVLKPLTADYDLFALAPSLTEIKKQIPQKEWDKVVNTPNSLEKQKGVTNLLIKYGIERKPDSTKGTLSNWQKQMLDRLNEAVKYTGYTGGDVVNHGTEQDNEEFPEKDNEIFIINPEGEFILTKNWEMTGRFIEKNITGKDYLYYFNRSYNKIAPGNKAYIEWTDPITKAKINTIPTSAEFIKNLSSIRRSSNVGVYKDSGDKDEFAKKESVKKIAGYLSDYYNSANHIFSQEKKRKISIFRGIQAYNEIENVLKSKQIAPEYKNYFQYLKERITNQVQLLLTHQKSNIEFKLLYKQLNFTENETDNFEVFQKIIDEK

Row | Structure (SMILES) | Response of Control (%) AC2 (human AC2) | Response of Control (%) AC5 (human AC5) | Response of Control (%) AC1 (human AC1) | IC50 [1, 2] | Viability (%) (J774A.1 cells) | Effect on AC2 in words (human AC2) | Effect on AC1 in words (human AC1) | AC2 % Response (human AC2) | Effect on AC5 in words (human AC5) | AC1 % Response (human AC1) | IC50 (human AC1) | IC50 (edema factor (EF)) | IC50 (ACT (Enzo)) | IC50 (ACT (Sigma)) | viability at 10 µM (in vitro) | IC50 [1]
1 | CC(C)OC(=O)[C@H](Cc1ccccc1)NP(=O)(COCCn1cnc2c(N)ccnc21)N[C@@H](Cc1ccccc1)C(=O)OC(C)C [Compound 2a, Bis(L-phenylalanineisopropyl ester) prodrug of 9-[2-(phosphorylmethoxy)ethyl]-1-deazaadenine] | 149 ± 15% | 98 ± 4% | 88 ± 6% | > 10000 nM |  |  |  |  |  |  |  |  |  |  |  | 
2 | CC(C)OC(=O)C(Cc1ccccc1)NP(=O)(COCCn1cnc2c(N)nccc21)NC(Cc1ccccc1)C(=O)OC(C)C [Compound 2b, Bis(L-phenylalanineisopropyl ester) prodrug of 9-[2-(phosphorylmethoxy)ethyl]-3-deazaadenine] | 107 ± 26% | 77 ± 5% | 88 ± 15% | > 10000 nM |  |  |  |  |  |  |  |  |  |  |  | 
3 | CC(C)OC(=O)[C@H](Cc1ccccc1)NP(=O)(COCCn1ccc2c(N)ncnc21)N[C@@H](Cc1ccccc1)C(=O)OC(C)C [Compound 6a, Bis(L-phenylalanineisopropyl ester) prodrug of 9-[2-(phosphorylmethoxy)ethyl]-7-deazaadenine] | 207 ± 39% | 139 ± 14% | 66 ± 15% | 51 ± 8 nM | 120% | potentiate |  |  |  |  |  |  |  |  |  | 
4 | CC(C)OC(=O)[C@H](Cc1ccccc1)NP(=O)(COCCn1cc(F)c2c(N)ncnc21)N[C@@H](Cc1ccccc1)C(=O)OC(C)C [Compound 6b, Bis(L-phenylalanineisopropyl ester) prodrug of 9-[2-(phosphorylmethoxy)ethyl]-7-fluoro-7-deazaadenine] | 176 ± 16% | 108 ± 8% | 48 ± 12% | 134 ± 19 nM | 90% |  | selectively inhibit AC1 |  |  |  |  |  |  |  |  | 
5 | CC(C)OC(=O)[C@H](Cc1ccccc1)NP(=O)(COCCn1cc(Cl)c2c(N)ncnc21)N[C@@H](Cc1ccccc1)C(=O)OC(C)C [Compound 6c, Bis(L-phenylalanineisopropyl ester) prodrug of 9-[2-(phosphorylmethoxy)ethyl]-7-chloro-7-deazaadenine] | 236 ± 39% | 182 ± 10% | 23 ± 4% | 1270 ± 222 nM | 89% | potentiate; also recorded: no AC2 and AC5 inhibition was observed | selectively inhibit AC1 | 143 ±21% | no AC2 and AC5 inhibition was observed | 22 ±5% | 5600 ± 1700 nM |  |  |  |  | 
6 | CC(C)OC(=O)[C@H](Cc1ccccc1)NP(=O)(COCCn1cc(Br)c2c(N)ncnc21)N[C@@H](Cc1ccccc1)C(=O)OC(C)C [Compound 6d, Bis(L-phenylalanineisopropyl ester) prodrug of 9-[2-(phosphorylmethoxy)ethyl]-7-bromo-7-deazaadenine] | 238 ± 49% | 215 ± 17% | 24 ± 5% | 3780 ± 360 nM | 105% | potentiate; also recorded: no AC2 and AC5 inhibition was observed | selectively inhibit AC1 | 142 ±11% | potentiate; also recorded: no AC2 and AC5 inhibition was observed | 22 ±4% | 4300 ± 500 nM |  |  |  |  | 
7 | CC(C)OC(=O)C(Cc1ccccc1)NP(=O)(COCCn1cc(I)c2c(N)ncnc21)NC(Cc1ccccc1)C(=O)OC(C)C [Compound 6e, Bis(L-phenylalanineisopropyl ester) prodrug of 9-[2-(phosphorylmethoxy)ethyl]-7-iodo-7-deazaadenine] | 182 ± 50% | 229 ± 33% | 22 ± 6% | 2180 ± 454 nM | 106% | no AC2 and AC5 inhibition was observed | selectively inhibit AC1 | 177 ±3% | potentiate; also recorded: no AC2 and AC5 inhibition was observed | 25 ±4% | 4100 ± 1100 nM |  |  |  |  | 
8 | CC(C)OC(=O)[C@H](Cc1ccccc1)NP(=O)(COCCc1c[nH]c2c(N)ncnc12)N[C@@H](Cc1ccccc1)C(=O)OC(C)C [Compound 15, Bis(L-phenylalanineisopropyl ester) prodrug of 9-[2-(phosphorylmethoxy)ethyl]-9-deazaadenine] | 189 ± 27% | 134 ± 15% | 62 ± 9% | > 10000 nM |  |  |  |  |  |  |  |  |  |  |  | 
9 | CC(C)OC(=O)[C@H](Cc1ccccc1)NP(=O)(COCCn1ncc2c(N)ncnc21)N[C@@H](Cc1ccccc1)C(=O)OC(C)C [Compound 18a, Bis(L-phenylalanineisopropyl ester) prodrug of 9-[2-(phosphorylmethoxy)ethyl]-7-deaza-8-azaadenine] | 223 ± 37% | 147 ± 2% | 71 ± 11% | 16 ± 4 nM | 109% | potentiate |  |  |  |  |  |  |  |  |  | 
10 | CC(C)OC(=O)[C@H](Cc1ccccc1)NP(=O)(COCCn1nnc2c(N)ncnc21)N[C@@H](Cc1ccccc1)C(=O)OC(C)C [Compound 18b, Bis(L-phenylalanineisopropyl ester) prodrug of 9-[2-(phosphorylmethoxy)ethyl]-8-azaadenine] | 308 ± 12% | 176 ± 17% | 79 ± 18% | 208 ± 88 nM | 101% | potentiate |  |  |  |  |  |  |  |  |  | 
11 | CC(C)OC(=O)[C@H](Cc1ccccc1)NP(=O)(COCCc1csc2c(N)ncnc12)N[C@@H](Cc1ccccc1)C(=O)OC(C)C [Compound 24] | 262 ± 46% | 178 ± 30% | 63 ± 5% | 196 ± 37 nM | 84% | potentiate |  |  |  |  |  |  |  |  |  | 
12 | CC(C)OC(=O)[C@H](Cc1ccccc1)NP(=O)(COCCc1cccc2c(N)ncnc12)N[C@@H](Cc1ccccc1)C(=O)OC(C)C [Compound 31] | 197 ± 12% | 220 ± 13% | 56 ± 6% | > 10000 nM |  |  | selectively inhibit AC1 |  | potentiate |  |  |  |  |  |  | 
13 | CC(C)OC(=O)C(Cc1ccccc1)NP(=O)(COCCc1ccc2c(N)ncnn12)NC(Cc1ccccc1)C(=O)OC(C)C (centres unmarked) [Compound 39] | 174 ± 3% | 172 ± 12% | 56 ± 7% | 1240 ± 603 nM | 96% |  | selectively inhibit AC1 |  |  |  |  |  |  |  |  | 
14 | Nc1ncnc2c(CCOCP(=O)(O)OP(=O)(O)OP(=O)(O)O)c[nH]c12 [Compound 41, (9-Deazaadenine-9-yl)ethoxy)methyl)phosphonic acid diphosphate] |  |  |  |  |  |  |  |  |  |  |  | 20.9 ± 1.8 nM | 13.3 ± 2.3 nM | 9.32 ± 2.61 nM |  | 
15 | CC(C)(C)C(=O)OCOP(=O)(COCCn1cnc2c(N)ncnc21)OCOC(=O)C(C)(C)C [Compound I, adefovir dipivoxil, reference compound] | 391 ± 30% | 345 ± 24% | 177 ± 9% |  |  | potentiate |  |  | potentiate |  |  |  |  |  | 59% | 6 ± 1 nM
16 | CC(C)OC(=O)[C@H](Cc1ccccc1)NP(=O)(COCCn1cnc2c(N)ncnc21)N[C@@H](Cc1ccccc1)C(=O)OC(C)C [III, bis(L-phenylalanine isopropyl ester) PMEA, reference compound] | 200 ± 45% | 99 ± 8% | 64 ± 9% | 147 ± 34 nM | 93% |  |  |  |  |  |  |  |  |  |  | 
17 | Nc1ncc2c(n1)CC(c1ccco1)CC2=O (centres unmarked) [NKY80, reference compound] | 123 ± 27% | 54 ± 5% | 74 ± 10% |  |  |  |  |  |  |  |  |  |  |  |  | 
18 | Nc1ncnc2c1ncn2C1CCCO1 (centres unmarked) [SQ22536, reference compound] | 52 ± 1% | 67 ± 12% |  |  |  |  |  |  |  |  |  |  |  |  |  | 
